Where two headings read alike, the source gives them in different places.
Legend:
[1] = tested on: IL-2 production in Jurkat cell (ATCC); assay: Jurkat IL-2 Production Assay; type: cell-based; conditions: Jurkat cells, 18-20 h incubation, serum/stimulant variant (1% FBS/PHA or 30% FBS/PMA+ionomycin) not given
Method: Jurkat IL-2 Production Assay Cell: Jurkat cell (ATCC) was grown in RPMI 1640 with 10% FBS and 1% penicillin/streptomycin. The cell density was kept at 1.2˜1.8×10^6/mL in culture flask before seeding into culture plate, and the cell density in the plate was 0.5×10^6/2004/well. Culture Media: RPMI 1640 with 1% FBS or 30% FBS for high serum assay. Test Compound: Serial dilution was done in 100% DMSO, and intermediate dilution was done with RPMI 1640 medium with 1% FBS. The DMSO final concentration in culture well was 0.25%. Stimulant: PHA (Sigma#L9017-10MG) was used for the assay with 1% FBS in culture medium, and added after 10 minutes exposure of cell to compound/DMSO. The PHA final concentration in culture well was 5 μg/mL. PMA (Sigma# P-8139 5MG)/Ionomycin (Sigma# I0634-5MG) was used for the assay with 30% FBS in culture medium, and added at same time point as the 1% FBS culture assay. The final concentration of PMA was 50 ng/mL, and Ionomycin final concentration was 500 ng/mL. Incubation: At 37° C. with 5% CO2 and 95% humidity for 18 h˜20 h. IC50: IC50 was calculated with the data analysis software XLfit4, General Pharmacology model 251.

[2] = tested on: T cell IL-2 production in human whole blood; assay: Human Whole Blood Assay (inhibition of T cell IL-2 production); type: cell-based; conditions: 10 μM Thapsigargin overnight, plasma IL-2 by AlphaLISA, read-out: HWB
Method: Inhibition of T cell IL-2 production CRAC compounds were tested in human whole blood from normal donors. 200 μl of human whole blood was aliquoted into each well of a round bottom 96 well plate. Concentration-response curves were generated for test compounds and CsA (as controls) by performing serial dilutions of the compounds and incubating each concentration in a single well for 30 min (experiment was performed in triplicate). Following incubation, the blood was stimulated with 10 μM Thapsigargin (SIGMA) overnight at 37° C. IL-2 concentrations in the plasma were determined by AlphaLISA IL-2 assay (Perkin Elmer). Data analysis was performed using GraphPad PRISMS.

Row | Molecule | IC50 ([1]; Homo sapiens) [µM] | IC50 ([2]; T-cell) [µM] | other results
1 | Cc1cc(C(F)(F)F)ccc1-c1ccc2c(c1)OCC(c1c(F)cccc1F)N2 (centres unmarked) [Example 1, 3-(2,6-Difluoro-phenyl)-7-(2-methyl-4-trifluoromethyl-phenyl)-3,4-dihydro-2H-benzo[1,4]oxazine] | 0.12 | – | –
2 | Cc1ccc(C(F)(F)F)cc1-c1ccc2c(c1)OCC(c1c(F)cccc1F)N2 (centres unmarked) [Example 4, 3-(2,6-difluoro-phenyl)-7-(2-methyl-5-trifluoromethyl-phenyl)-3,4-dihydro-2H-benzo[1,4]oxazine] | 0.1 | 3.22 | –
3 | Cn1nc(C(F)(F)F)cc1-c1ccc2c(c1)OCC(c1c(F)cccc1F)N2 (centres unmarked) [Example 5, 3-(2,6-Difluoro-phenyl)-7-(2-methyl-5-trifluoromethyl-2H-pyrazol-3-yl)-3,4-dihydro-2H-benzo[1,4]oxazine] | 0.1 | 0.91 | –
4 | CCn1nc(-c2cnccn2)cc1-c1ccc2c(c1)OCC(c1c(F)cccc1F)N2 (centres unmarked) [Example 8, 3-(2,6-Difluoro-phenyl)-7-(2-ethyl-5-pyrazin-2-yl-2H-pyrazol-3-yl)-3,4-dihydro-2H-benzo[1,4]oxazine] | 0.11 | – | –
5 | Cn1nc(-c2cccnc2)nc1-c1ccc2c(c1)OCC(c1c(F)cccc1F)N2 (centres unmarked) [Example 9, 3-(2,6-Difluoro-phenyl)-7-(2-methyl-5-pyridin-3-yl-2H-[1,2,4]triazol-3-yl)-3,4-dihydro-2H-benzo[1,4]oxazine] | 0.31 | – | –
6 | CCn1nc(-c2cccnc2)nc1-c1ccc2c(c1)OCC(c1c(F)cccc1F)N2 (centres unmarked) [Example 10, 3-(2,6-Difluoro-phenyl)-7-(2-ethyl-5-pyridin-3-yl-2H-[1,2,4]triazol-3-yl)-3,4-dihydro-2H-benzo[1,4]oxazine] | 0.09 | 0.51 | –
7 | Cc1sc(-c2ccccn2)nc1-c1ccc2c(c1)OCC(c1c(F)cccc1F)N2 (centres unmarked) [Example 11, 3-(2,6-Difluoro-phenyl)-7-(5-methyl-2-pyridin-2-yl-thiazol-4-yl)-3,4-dihydro-2H-benzo[1,4]oxazine] | 0.12 | 1.82 | –
8 | CCc1sc(-c2ccccn2)nc1-c1ccc2c(c1)OCC(c1c(F)cccc1F)N2 (centres unmarked) [Example 13, 3-(2,6-Difluoro-phenyl)-7-(5-ethyl-2-pyridin-2-yl-thiazol-4-yl)-3,4-dihydro-2H-benzo[1,4]oxazine] | – | 1.94 | –
9 | Cc1sc(-c2cnccn2)nc1-c1ccc2c(c1)OCC(c1c(F)cccc1F)N2 (centres unmarked) [Example 15, 3-(2,6-difluorophenyl)-7-(5-methyl-2-(pyrazin-2-yl)thiazol-4-yl)-3,4-dihydro-2H-benzo[b][1,4]oxazine] | 0.06 | – | –
10 | CCc1cc(-c2nc(-c3ccc4c(c3)OCC(c3c(F)cccc3F)N4)c(CC)s2)ccn1 (centres unmarked) [Example 18, 3-(2,6-Difluoro-phenyl)-7-[5-ethyl-2-(2-ethyl-pyridin-4-yl)-thiazol-4-yl]-3,4-dihydro-2H-benzo[1,4]oxazine] | – | 6.15 | –
11 | CCc1sc(-c2ncco2)nc1-c1ccc2c(c1)OCC(c1c(F)cccc1F)N2 (centres unmarked) [Example 19, 3-(2,6-Difluoro-phenyl)-7-(5-ethyl-2-oxazol-2-yl-thiazol-4-yl)-3,4-dihydro-2H-benzo[1,4]oxazine] | – | 0.65 | –
12 | COc1cc(C)c(-c2ccc3c(c2)OCC(c2c(F)cccc2F)N3)cn1 (centres unmarked) [Example 21, 3-(2,6-Difluoro-phenyl)-7-(6-methoxy-4-methyl-pyridin-3-yl)-3,4-dihydro-2H-benzo[1,4]oxazine] | 0.28 | – | –
13 | CCS(=O)(=O)c1cc(C)c(-c2ccc3c(c2)OCC(c2c(F)cccc2F)N3)cn1 (centres unmarked) [Example 22, 3-(2,6-difluorophenyl)-7-(6-(ethylsulfonyl)-4-methylpyridin-3-yl)-3,4-dihydro-2H-benzo[b][1,4]oxazine] | 0.09 | – | –
14 | Cc1cc(Cl)ncc1-c1ccc2c(c1)OCC(c1c(F)cccc1F)N2 (centres unmarked) [Example 23, 7-(6-Chloro-4-methyl-pyridin-3-yl)-3-(2,6-difluoro-phenyl)-3,4-dihydro-2H-benzo[1,4]oxazine] | 0.32 | – | –
15 | Cc1cc(-c2ncco2)ncc1-c1ccc2c(c1)OCC(c1c(F)cccc1F)N2 (centres unmarked) [Example 24, 3-(2,6-Difluoro-phenyl)-7-(4-methyl-6-oxazol-2-yl-pyridin-3-yl)-3,4-dihydro-2H-benzo[1,4]oxazine] | 0.34 | – | –
16 | Cc1cc(-c2cnc(N)nc2)ncc1-c1ccc2c(c1)OCC(c1c(F)cccc1F)N2 (centres unmarked) [Example 25, 5-(5-(3-(2,6-difluorophenyl)-3,4-dihydro-2H-benzo[b][1,4]oxazin-7-yl)-4-methylpyridin-2-yl)pyrimidin-2-amine] | 0.66 | – | –
17 | Cc1ncc(-c2cc(C)c(-c3ccc4c(c3)OCC(c3c(F)cccc3F)N4)cn2)s1 (centres unmarked) [Example 26, 3-(2,6-difluorophenyl)-7-(4-methyl-6-(2-methylthiazol-5-yl)pyridin-3-yl)-3,4-dihydro-2H-benzo[b][1,4]oxazine] | 0.21 | – | –
18 | Cc1cc(-c2nnn(C)n2)ncc1-c1ccc2c(c1)OCC(c1c(F)cccc1F)N2 (centres unmarked) [Example 27, 3-(2,6-difluorophenyl)-7-(4-methyl-6-(2-methyl-2H-tetrazol-5-yl)pyridin-3-yl)-3,4-dihydro-2H-benzo[b][1,4]oxazine] | 0.67 | – | –
19 | Cc1ccc(-c2ncco2)cc1-c1ccc2c(c1)OCC(c1c(F)cccc1F)N2 (centres unmarked) [Example 28, 3-(2,6-Difluoro-phenyl)-7-(2-methyl-5-oxazol-2-yl-phenyl)-3,4-dihydro-2H-benzo[1,4]oxazine] | – | 1 | –
20 | Cc1cc(C(F)(F)F)ccc1-c1ccc2c(c1)OCC(c1c(F)cccc1Cl)N2 (centres unmarked) [Example 29, 3-(2-Chloro-6-fluoro-phenyl)-7-(2-methyl-4-trifluoromethyl-phenyl)-3,4-dihydro-2H-benzo[1,4]oxazine] | 0.16 | 5.33 | –
21 | Cc1ccc(C(F)(F)F)cc1-c1ccc2c(c1)OCC(c1c(F)cccc1Cl)N2 (centres unmarked) [Example 30, 3-(2-Chloro-6-fluoro-phenyl)-7-(2-methyl-5-trifluoromethyl-phenyl)-3,4-dihydro-2H-benzo[1,4]oxazine] | 0.22 | – | –
22 | Cc1sc(-c2ccccn2)nc1-c1ccc2c(c1)OCC(c1c(F)cccc1Cl)N2 (centres unmarked) [Example 31, 3-(2-Chloro-6-fluoro-phenyl)-7-(5-methyl-2-pyridin-2-yl-thiazol-4-yl)-3,4-dihydro-2H-benzo[1,4]oxazine] | 0.14 | 3.55 | –
23 | Cc1sc(-c2cccnc2)nc1-c1ccc2c(c1)OCC(c1c(F)cccc1Cl)N2 (centres unmarked) [Example 32, 3-(2-Chloro-6-fluoro-phenyl)-7-(5-methyl-2-pyridin-3-yl-thiazol-4-yl)-3,4-dihydro-2H-benzo[1,4]oxazine] | 0.05 | 0.58 | –
24 | COc1cc(C)c(-c2ccc3c(c2)OCC(c2c(F)cccc2Cl)N3)cn1 (centres unmarked) [Example 33, 3-(2-Chloro-6-fluoro-phenyl)-7-(6-methoxy-4-methyl-pyridin-3-yl)-3,4-dihydro-2H-benzo[1,4]oxazine] | 0.38 | – | –
25 | Cn1nc(C(F)(F)F)cc1-c1ccc2c(c1)OCC(c1ccccc1Cl)N2 (centres unmarked) [Example 34, 3-(2-chlorophenyl)-7-(1-methyl-3-(trifluoromethyl)-1H-pyrazol-5-yl)-3,4-dihydro-2H-benzo[b][1,4]oxazine] | 0.35 | – | –
26 | COc1cc(C)c(-c2ccc3c(c2)OCC(c2ccccc2Cl)N3)cn1 (centres unmarked) [Example 35, 3-(2-chlorophenyl)-7-(6-methoxy-4-methylpyridin-3-yl)-3,4-dihydro-2H-benzo[b][1,4]oxazine] | 0.73 | – | –
27 | Cc1sc(-c2cccnc2)nc1-c1ccc2c(c1)OCC(c1ccccc1Cl)N2 (centres unmarked) [Example 36, 3-(2-chlorophenyl)-7-(5-methyl-2-(pyridin-3-yl)thiazol-4-yl)-3,4-dihydro-2H-benzo[b][1,4]oxazine] | 0.09 | – | –
28 | CCc1sc(-c2cnccn2)nc1-c1ccc2c(c1)OCC(c1ccccc1Cl)N2 (centres unmarked) [Example 37, 3-(2-chlorophenyl)-7-(5-ethyl-2-(pyrazin-2-yl)thiazol-4-yl)-3,4-dihydro-2H-benzo[b][1,4]oxazine] | 0.07 | – | –
29 | (R)-3-(2,6-Difluoro-phenyl)-7-(2-methyl-4-trifluoromethyl-phenyl)-3,4-dihydro-2H-benzo[1,4]oxazine or (S)-3-(2,6-Difluoro-phenyl)-7-(2-methyl-4-trifluoromethyl-phenyl)-3,4-dihydro-2H-benzo[1,4]oxazine [Example 2] | – | – | IC50 [2]: 3.16 µM; IC50 [1]: 0.08 µM
30 | (S)-3-(2,6-Difluoro-phenyl)-7-(2-methyl-4-trifluoromethyl-phenyl)-3,4-dihydro-2H-benzo[1,4]oxazine or (R)-3-(2,6-Difluoro-phenyl)-7-(2-methyl-4-trifluoromethyl-phenyl)-3,4-dihydro-2H-benzo[1,4]oxazine [Example 3] | – | – | IC50 [1]: 0.35 µM
